Data set [1] deals with rat mixed hippocampal cultures. Description: in vitro neuroprotection assay against 3-NP, MTT viability. The note with it: for protection from oxidative damage elicited by 3-NP: preincubated one hour prior to 18 hour exposure to 3 mM 3-NP. From the text: 5, 2007. In Tables 5 and 6 “% Protection vs 3-NP” refers to the increase in cultured neuron viability in the presence of the oxidative stressor 3-nitropropionic acid. For details of the assay, see Example 3 below.
(§1) We sought to evaluate the protective efficacy of a number of modified terpenoid compounds against the against many different neurotoxins, ranging from the chemotoxic 6-OHDA, NMDA, 3-nitropropionic acid (3-NP), and viral proteins such as Tat and gp120. Thus, we established an in vitro neuroprotection assay using rat mixed hippocampal cultures, in which we evaluated the protective efficacy of neuroprotective compounds disclosed herein. The oxidative stressor 3-NP was used to elicit toxicity in the rat hippocampal cultures to mimic the oxidative damage, reactive oxygen species production and ensuing neurodegeneration resulting from HIV infection. Another measure of neurotoxicity which results from HIV infection was evaluated by exposure of the hippocampal cultures to HIV-1 Tat (Li et al (2005), Neurotox Res, 8(1-2):119-134).
(§2) Rat mixed hippocamal neuronal cultures were generated from freshly dissected rat hippocampi (embryonic day 18) in neurobasal media containing 5% fetal bovine serum and 2% B27 supplement. The cells were plated into 96 well plates at a density of 4×10^5 cells/mL and routinely used on days 11-14 following culturing. Cell viability was assessed with MTT [3-(4,5-dimethylthiazol-2-yl)-2,5-diphenyltetrazolium bromide] assay. The MTT assay is based on the ability of a mitochondrial dehydrogenase enzyme from viable cells to cleave the tetrazolium rings of the pale yellow MTT and form dark blue formazan crystals. See Mosmann (1983), J Immunol Methods, 65(1-2):55-63. These crystals are largely impermeable to cell membranes, and thus accumulate within healthy cells. The resultant formazan precipitates are solubilized with DMSO and read on a multiwell scanning spectrophotometer (ELISA reader). The number of surviving cells is directly proportional to the level of the formazan product created.
Mixed hippocampal cultures were incubated with 3-NP (0.5-10 mM) for 18 hours and then assessed for viability using an MTT assay.
(§3) Cultures were preincubated with GPI 1046 or Resveratrol for one hour prior to an 18 hour exposure to 3 mM 3-NP. […] The same neuroprotective compounds were evaluated for efficacy against HIV-1 Tat protein toxicity using the same 1 hour preincubation protocol.

The test system of data set [2] is rat mixed hippocampal cultures. Description: neuroprotection against HIV-1 Tat toxicity. Format: cell-based. To be noted: for protection from HIV-1 Tat toxicity: 1 hour preincubation.
Text: as §1, §2, §3

Data set [3] relates to rat neuronal cultures. Description: protection against 6-OHDA neurotoxicity. Format: cell-based.
Text: as §1
(§4) Rat mixed hippocamal neuronal cultures were generated from freshly dissected rat hippocampi (embryonic day 18) in neurobasal media containing 5% fetal bovine serum and 2% B27 supplement. The cells were plated into 96 well plates at a density of 4×10^5 cells/mL and routinely used on days 11-14 following culturing. Cell viability was assessed with MTT [3-(4,5-dimethylthiazol-2-yl)-2,5-diphenyltetrazolium bromide] assay. […] The resultant formazan precipitates are solubilized with DMSO and read on a multiwell scanning spectrophotometer (ELISA reader). […]

Data set [4] relates to human fetal neuronal cultures. Briefly: protection of human fetal neurons against 6-OHDA. Format: cell-based. An excerpt: (§5) Finally, we sought to determine if the compounds tested in rat neuronal cultures would also be effective on cultured human fetal neurons.
Data set [5] has as its system rat neuronal cultures. Description: protection against NMDA excitotoxicity. Format: cell-based.
Text: as §1, §4

Data set [6] has as its system human fetal neuronal cultures. Briefly: protection of human fetal neurons against 3-NP. Format: cell-based.
Text: as §5

In another data set the target is T1, cathepsin B (Homo sapiens, UniProt P07858).
T1 construct: Cell lysates were prepared using a lysis buffer provided with the assay kit; host or cells: THP-1 cell lysate
Description: cathepsin B functional assay. It counts as biochemical. The note with it: for inhibition of cathepsin B activity: untreated recombinant protein, or protease alone; for ability to inhibit cathepsin B after treatment of cystatin C with MMP-2: recombinant cystatin C treated with MMP-2; for cathepsin B activity after treatment of cystatin C with cathepsin D: recombinant cystatin C treated with cathepsin D. On the procedure:
The activity of cathepsin B, a substrate of cystatin C, was measured using an activity assay kit (Biovision Research Products, Mountain View, Calif.). This fluorescence-based assay utilizes the cathepsin-B substrate sequence Arg-Arg labeled with amino-4-trifluoromethyl coumarin […]. Cathepsin-B cleaves the synthetic substrate RR-AFC to release free AFC. THP-1 cells (a monocytic cell line) were used as a source of cathepsin B. Cell lysates were prepared using a lysis buffer provided with the assay kit. Cell lysates from 1×10^6 cells were added to 50 μl of CSF in a microtiter plate (q.s. 100 μl). Two μl of substrate Ac-Arg-Arg-AFC was added to each well and incubated for 1 hr at 37° C. Absorbance was measured using a fluorescent plate reader with a 400 nm excitation filter and 505 nm emission filter. Controls included reaction buffer alone and a cathepsin B inhibitor provided in the kit. All samples were analyzed in duplicate.
Recombinant cystatin C was produced and the ability of MMP-2 and cathepsin D to cleave the recombinant protein was confirmed. As expected, cathepsin D cleaved cystatin C at four different sites, and yielded a 12.5 kD fragment following cleavage from the C terminal region (9). In contrast, MMP-2 cleaved cystatin C at three unique sites (GK, FC, and GT which correspond to amino acids 4,5; 96,97 and 108,109). Recombinant cystatin C was treated with either MMP-2 or cathepsin D and its activity monitored by a cathepsin B functional assay using a kit from Biovision Research Products, Mountain View, Calif. The assay was performed as previously described (4). […] Cathepsin D and MMP-2 alone had no effect on cathepsin B activity (FIG. 9). These observations confirmed that C terminal fragmentation of cystatin C leads to a gain in activity while cleavage in other regions including the N terminal region leads to a loss or decrease of activity of cystatin C.

The test system of the next data set is cystatin C. Briefly: effect of protease inhibitors on cystatin C cleavage in CSF. The note with it: control CSF with only full length cystatin C, room temperature 48 hours; FN-439 and pepstatin A 500 ug/ml. Format: biochemical, human.
Setting [7] is: listed as Recombinant cystatin C.

Entries after “also recorded” stand apart in the source; their conditions may differ. Non-standard residues stand in square brackets, D forms with d. Residues, ends and D or L forms follow the SMILES beside them. *: point of attachment. Sta = CC(C)C[C@H](N)[C@@H](O)CC(=O)O; Isovaleryl = CC(C)CC(=O)*; 4Abz = Nc1ccc(C(=O)O)cc1; NHOH = ON*

This is an account of results in patent US8114619B2, “Methods for diagnosis and optimizing treatment of multiple sclerosis” (The Johns Hopkins University, priority 2006, dated 2012).

Description for cystatin C: We incubated control CSF which contained only the full length cystatin C at room temperature for 48 hours in the presence of various protease inhibitors and monitored it for the presence of the 12.5 kD fragment.

`CCC(C)(C)C(=O)C(=O)N1CCC[C@H]1C(=O)OCCCc1cccnc1` [GPI 1046, reference compound]: in data set [1], the “protection from oxidative damage elicited by 3-NP” value is “significantly protected”. Besides, the “protection from HIV-1 Tat toxicity” value in data set [2] was “protected hippocampal neurons from Tat toxicity”.

Regarding `CC1(C)O[C@H]2CC(=O)OC[C@]23[C@H]2CC[C@@]4(C)[C@H](c5ccoc5)OC(=O)[C@H]5O[C@]54[C@]2(C)C(=O)C[C@@H]13` [Limonin], the “protection against 6-OHDA at highest dose” value in the data set with rat neuronal cultures [3] (10 μM, highest dose tested) is on record as “complete protection”. Besides, the “block of 6-OHDA neurotoxicity” value with rat neuronal cultures [3] (dose-dependent) is on record as “dose-dependently blocked”. Also, the “protection against 6-OHDA” value in data set [4] is recorded as “dose-dependently protected”. In the data set with rat neuronal cultures [5] (10 μM, highest dose tested), the “protection against NMDA at highest dose” value is “complete protection”. For the same molecule, in the data set with rat neuronal cultures [5] (dose-dependent), the “block of NMDA neurotoxicity” value is on record as “dose-dependently blocked”. Moreover, in data set [6], the “protection against 3-NP” value was “dose-dependently protected”. Further, the “protection from HIV-1 Tat toxicity” value in data set [2] was “dose dependently protected”.

With `CC(=O)O[C@@H]1CC2C(C)(C)C(=O)C=C[C@]2(C)C2CC[C@]3(C)[C@@H](c4ccoc4)OC(=O)[C@H]4O[C@]43[C@@]21C` (stereo partly drawn) [GEDUNIN], the “neuroprotection from HIV-1 Tat toxicity at 1-10 μM” value in data set [2] (1-10 μM) is listed as “nearly complete neuroprotection”. In data set [2], the “protection from HIV-1 Tat toxicity” value was “dose dependently protected”.

Regarding “Cathepsin D: protease that cleaves cystatin C from the C terminal region”, the “inhibition of cathepsin B activity” value with cathepsin B is on record as “no effect”.

As for `CC(C)CC(=O)N[C@H](C(=O)N[C@H](C(=O)N[C@@H](CC(C)C)[C@@H](O)CC(=O)N[C@@H](C)C(=O)N[C@@H](CC(C)C)[C@@H](O)CC(=O)O)C(C)C)C(C)C` [pepstatin A] (Isovaleryl-VV[Sta]A[Sta]-OH), the “effect on cleavage of cystatin C (12.5 kD fragment)” value in the data set on cystatin C is listed as “showed inhibition of the breakdown of cystatin C; also recorded: significantly prevented cleavage of cystatin C”.

For the molecule `Oc1ccc(C=Cc2cc(O)cc(O)c2)cc1` [RESVERATROL, reference compound], the “protection from oxidative damage elicited by 3-NP” value in data set [1] is given as “significantly protected”. Further, in data set [2], the “protection from HIV-1 Tat toxicity” value is “protected hippocampal neurons from Tat toxicity”.

For `CC(C)C[C@@H](NC(=O)[C@@H]1CCCN1C(=O)CNC(=O)c1ccc(N)cc1)C(=O)N[C@H](C)C(=O)NO` [FN-439] (H-[4Abz]GP[dL][dA]-{NHOH}), the “effect on cleavage of cystatin C (12.5 kD fragment)” value with cystatin C is given as “showed inhibition of the breakdown of cystatin C”.

On to `C[C@@H]1[C@H](O)[C@@H](C)/C=C/C=C/CC/C=C/C=C/C=C/C=C/C(O[C@H]2O[C@H](C)[C@@H](O)[C@H](N)[C@@H]2O)CC2O[C@](O)(CC(O)C(O)CCC(O)CC(O)CC(O)CC(=O)O[C@H]1C)CC(O)C2C(=O)O` (stereo partly drawn) [NYSTATIN], for which the “% Protection vs 3NP” value in data set [1] (increase in cultured neuron viability in the presence of 3-nitropropionic acid (Table 6)) is given as 46.72%.

For `O=C(O)CC[N+](=O)[O-]` [Compound 3-NP, 3-nitropropionic acid], the cytotoxicity in data set [1] (3 mM 3-NP, 18 hours, MTT assay) is recorded as 25-35%.

B1: full length cystatin C: recombinant cystatin C, inhibitor of cysteine proteases including cathepsin B (protein)
chain: SSPGKPPRLVGGPMDASVEEEGVRRALDFAVGEYNKASNDMYHSRALQVVRARKQIVAGVNYFLDVELGRTTCTKTQPNLDNCPFHDQPHLKRKAFCSFQIYAVPWQGTMTLSKSTCQDA
B1: in the data set with cathepsin B (setting [7]), the “ability to inhibit cathepsin B after treatment of cystatin C with MMP-2” value is listed as “inhibition of CysC activity” and the “cathepsin B activity after treatment of cystatin C with cathepsin D” value is “further enhanced”. In the data set with cathepsin B (listed as cystatin C), the “ability to inhibit cathepsin B after treatment of cystatin C with MMP-2” value is on record as “decrease in its ability to inhibit cathepsin B activity” and the “cathepsin B activity after treatment of cystatin C with cathepsin D” value was “further decrease in cathepsin B activity”. In addition, the “inhibition of cathepsin B activity” value with cathepsin B was “significant inhibition”.

B2: MMP-2: matrix metalloprotease that cleaved cystatin C at three sites (protein)
chain: YNFFPRKPKWDKNQITYRIIGYTPDLDPETVDDAFARAFQVWSDVTPLRFSRIHDGEADIMINFGRWEHGDGYPFDGKDGLLAHAFAPGTGVGGDSHFDDDELWTLGEGQVVRVKYGNADGEYCKFPFLFNGKEYNSCTDTGRSDGFLWCSTTYNFEKDGKYGFCPHEALFTMGGNAEGQPCKFPFRFQGTSYDSCTTEGRTDGYRWCGTTEDYDRDKKYGFCPETAMSTVGGNSEGAPCVFPFTFLGNKYESCTSAGRSDGKMWCATTANYDDDRKWGFCPDQGYSLFLVAAHEFGHAMGLEHSQDPGALMAPIYTYTKNFRLSQDDIKGIQELYGASPDIDLGTGPTPTLGPVTPEICKQDIVFDGIAQIRGEIFFFKDRFIWRTVTPRDKPMGPLLVATFWPELPEKIDAVYEAPQEEKAVFFAGNEYWIYSASTLERGYPKPLTSLGLPPDVQRVDAAFNWSKNKKTYIFAGDKFWRYNEVKKKMDPGFPKLIADAWNAIPDNLDAVVDLQGGGHSYFFKGAYYLKLENQSLKSVKFGSIKSDWLGC
As to B2, the “inhibition of cathepsin B activity” value with cathepsin B is recorded as “no effect”.
